Molecules are shown by their SMILES. Like-named read-outs stand apart in the source and are kept apart here.

We go through 25 compounds from patent EP2951180B1, “2,6,7,8 SUBSTITUTED PURINES AS HDM2 INHIBITORS” (Merck Sharp & Dohme Corp., priority 2013, dated 2014).

The experiment deals with T1, HDM2 (Homo sapiens, UniProt Q00987).
T1 construct: Thioredoxin (N); made in house; host or cells: E. coli strain BL21(DE3)Rosetta
In words: HDM2 FRET assay (inhibition of binding of FITC labeled p53-pocket peptide to HDM2). As to conditions: for IC50: read-out: FRET IC50. In outline:
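Signal is read as the 520/495 nm emission ratio and converted to percent inhibition; nonlinear sigmoidal regression yields IC50. The assay mixes HDM2 (0.5 nM), FITC-p53 peptide (3 nM) and Tb anti-His antibody (0.25 nM) at 0.1% DMSO.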

Setting [1] is: 0.5 nM HDM2 (residues 17 to 125), 3nM peptide, two hour incubation at room temperature.

T1 sequence (Q00987 17-125): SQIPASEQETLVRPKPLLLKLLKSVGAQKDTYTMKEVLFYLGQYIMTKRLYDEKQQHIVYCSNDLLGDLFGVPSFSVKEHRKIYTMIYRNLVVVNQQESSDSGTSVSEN

The term IC50 denotes the concentration needed to halve the response being measured. `CC(C)c1ccnc(-c2nc3nc(C(=O)O)nc(N[C@@H](c4ccccc4)C4CCC4)c3n2Cc2ccc(C(F)(F)F)cc2)c1` [Example 6.57, 6-{[(R)-cyclobutyl(phenyl)methyl]amino}-8-[4-(1-methylethyl)pyridin-2-yl]-7-[4-(trifluoromethyl)benzyl]-7H-purine-2-carboxylic acid]: the IC50 (Table 6) stood at 1.06 µM.

On to `CC1CCN(C)C(c2nc3nc(C(=O)O)nc(N[C@H](C)C4CCC4)c3n2C[C@H]2CC[C@H](C)CC2)C1` (stereo partly drawn) [Example 10.33, 6-(((R)-1-Cyclobutylethyl)amino)-8-(1,4-dimethylpiperidin-2-yl)-7-((trans-4-methylcyclohexyl)methyl)-7H-purine-2-carboxylic acid], for which the IC50 (Table 10) turned out to be 0.0177 µM.

Take `Cc1cccc(-c2nc(-c3n[nH]c(=O)o3)nc3nc(N4CCOCC4)n(C[C@H]4CC[C@H](C)CC4)c23)c1` [Example 16.3, 5-(7-(((trans)-4-methylcyclohexyl)methyl)-8-morpholino-6-(m-tolyl)-7H-purin-2-yl)-1,3,4-oxadiazol-2(3H)-one]: the IC50 under setting [1] was 0.563 µM.

As to `CC(C)C(O)c1nc2nc(-c3noc(=O)[nH]3)nc(N[C@H](C)C3CCC3)c2n1C[C@H]1CC[C@H](C)CC1` (stereo partly drawn) [Example 22.45, 3-(6-{[(1R)-1-cyclobutylethyl]amino}-8-(1-hydroxy-2-methylpropyl)-7-[(trans-4-methylcyclohexyl)methyl] -7H-purin-2-yl)-1,2,4-oxadiazol-5(4H)-one], the IC50 (Table 22) was determined as 0.00366 µM.

For the compound `C[C@@H](Nc1nc(-c2noc(=O)[nH]2)nc2nc(C3CCCCC3c3ccccc3)n(C[C@H]3CC[C@H](C)CC3)c12)C1CCC1` (single isomer, unassigned) [Example 21.26], the IC50 (Table 21) was found to be 0.0216 µM.

As to `CC(C)(O)c1ccnc(-c2nc3nc(-c4noc(=O)[nH]4)nc(-c4cccc(Cl)c4)c3n2C[C@H]2CC[C@H](C)CC2)c1` [Example 16.36, 3-{6-(3-chlorophenyl)-8-[4-(1-hydroxy-1-methylethyl)pyridin-2-yl]-7-[(trans-4-methylcyclohexyl)methyl]-7H-purin-2-yl}-1,2,4-oxadiazol-5(4H)-one], under setting [1], the IC50 is 0.0262 µM.

In the case of `Cc1noc(C(C)Nc2nc3nc(-c4noc(=O)[nH]4)nc(N[C@H](C)C4CCC4)c3n2C[C@H]2CC[C@H](C)CC2)n1` (stereo partly drawn) [Example 11.90, 3-(6-{[(1R)-1-cyclobutylethyl]amino}-7-[(trans-4-methylcyclohexyl)methyl]-8-{[1-(3-methyl-1,2,4-oxadiazol-5-yl)ethyl]amino} -7H-purin-2-yl)-1,2,4-oxadiazol-5(2H)-one], under “Table 11”, the IC50 is 0.00404 µM.

Take `CC1CCCN1c1nc2nc(-c3noc(=O)[nH]3)nc(N[C@H](C)C3CCC3)c2n1C[C@H]1CC[C@H](C)CC1` (stereo partly drawn) [Example 11.34, 3-[6-{[(1R)-1-cyclobutylethyl]amino}-7-[(trans-4-methylcyclohexyl)methyl]-8-(2-methylpyrrolidin-1-yl)-7H-purin-2-yl]-1,2,4-oxadiazol-5(2H)-one]: the IC50 (Table 11) is 0.0254 µM.

For `C[C@@H]1COCCN1c1nc2nc(-c3noc(=O)[nH]3)nc(-c3cncc(Cl)c3)c2n1C[C@H]1CC[C@H](C)CC1` [Example 16.10, 3-(6-(5-chloropyridin-3-yl)-7-(((trans)-4-methylcyclohexyl)methyl)-8-((R)-3-methylmorpholino)-7H-purin-2-yl)-1,2,4-oxadiazol-5(4H)-one], the IC50 under setting [1] was found to be 0.0181 µM.

As for `C[C@@H]1CN(C(=O)OC(C)(C)C)[C@@H](C)CN1c1nc2nc(-c3noc(=O)[nH]3)nc(N[C@H](C)C3CCC3)c2n1C[C@H]1CC[C@H](C)CC1` [Example 17.20, tert-butyl (2S,5R)-4-[6-{[(1R)-1-cyclobutylethyl]amino}-7-[(trans-4-methylcyclohexyl)methyl]-2-(5-oxo-4,5-dihydro-1,2,4-oxadiazol-3-yl)-7H-purin-8-yl]-2,5-dimethylpiperazine-1-carboxylate], the IC50 (Table 17.2) turned out to be 0.0147 µM.

Turning to `C[C@@H]1OCCN(c2nc3nc(-c4n[nH]c(=O)o4)nc(-c4cncc(Cl)c4)c3n2C[C@H]2CC[C@H](C)CC2)[C@@H]1C` [Example 16.103, 5-{6-(5-chloropyridin-3-yl)-8-[(2S,3R)-2,3-dimethylmorpholin-4-yl]-7-[(trans-4-methylcyclohexyl)methyl]-7H-purin-2-yl}-1,3,4-oxadiazol-2(3H)-one], the IC50 under setting [1] was 0.14 µM.

`Cc1cccc(-c2nc3nc(C(=O)O)nc(OCC4CC4)c3n2Cc2ccc(C(F)(F)F)cc2)c1` [Example 17.2, 6-(cyclopropylmethoxy)-8-(3-methylphenyl)-7-[4-(trifluoromethyl)benzyl]-7H-purine-2-carboxylic acid]: the IC50 under setting [1] amounted to 0.814 µM.

Consider `C[C@@H]1CN(C(=O)C2CC2)[C@@H](C)CN1c1nc2nc(-c3noc(=O)[nH]3)nc(N[C@H](C)C3CCC3)c2n1C[C@H]1CC[C@H](C)CC1` [Example 17.23, 3-(6-{[(1R)-1-cyclobutylethyl]amino}-8-[(2R,5S)-4-(cyclopropylcarbonyl) -2,5-dimethylpiperazin-1-yl]-7-[(trans-4-methylcyclohexyl)methyl]-7H-purin-2-yl)-1,2,4-oxadiazol-5(4H)-one], for which the IC50 (Table 17.2) came out at 0.00488 µM.

Turning to `C=C(c1nc2nc(-c3noc(=O)n3C)nc(N[C@H](C)C3CCC3)c2n1C[C@H]1CC[C@H](C)CC1)C(C)(C)C` [Example 22.33, 3-(6-{[(1R)-1-cyclobutylethyl]amino}-8-(2,2-dimethyl-1-methylidenepropyl)-7-[(trans-4-methylcyclohexyl)methyl] -7H-purin-2-yl)-4-methyl-1,2,4-oxadiazol-5(4H)-one], the IC50 (Table 22) is 0.291 µM.

For the compound `C[C@@H](Nc1nc(-c2nnnn2C)nc2nc(N3CCOC[C@H]3c3ccccc3)n(C[C@H]3CC[C@H](C)CC3)c12)C1CCC1` [Example 12.12, N-[(1R)-1-cyclobutylethyl]-7-[(trans-4-methylcyclohexyl)methyl]-2-(1-methyl-1H-tetrazol-5-yl)-8-[(3R)-3-phenylmorpholin-4-yl]-7H-purin-6-amine], the IC50 under setting [1] came out at 0.0273 µM.

Consider `C[C@@H](Nc1nc(-c2noc(=O)[nH]2)nc2nc(C3(c4ccccc4)CCO3)n(C[C@H]3CC[C@H](C)CC3)c12)C1CCC1` (stereo partly drawn) [Example 22.81, 3-[6-{[(1R)-1-cyclobutylethyl]amino}-7-[(trans-4-methylcyclohexyl)methyl]-8-(2-phenyloxetan-2-yl)-7H-purin-2-yl]-1,2,4-oxadiazol-5(4H)-one], for which the IC50 (Table 22) stood at 0.011 µM.

`C[C@@H](Nc1nc(C(=O)O)nc2nc(C3COCC3c3ccccc3)n(Cc3ccc(C(F)(F)F)cc3)c12)C1CCC1` (single isomer, unassigned) [Example 21.8]: the IC50 (Table 21) is 0.0038 µM.

With `CC([C@H]1CC[C@H](C)CC1)n1c(N2CCC[C@H]2C(F)(F)F)nc2nc(-c3noc(=O)[nH]3)nc(-c3cncc(Cl)c3)c21` (stereo partly drawn) [Example 18.49, 3-{6-(5-chloropyridin-3-yl)-7-[1-(trans-4-methylcyclohexyl)ethyl]-8-[(2S)-2-(trifluoromethyl)pyrrolidin-1-yl]-7H-purin-2-yl}-1,2,4-oxadiazol-5(4H)-one], under “Table 18”, the half-maximal inhibitory concentration (IC50) was 0.00067 µM.

Consider `CC(C)c1ccnc(-c2nc3nc(CN)nc(N[C@H](C)C4CCC4)c3n2C[C@H]2CC[C@H](C)CC2)c1` [Example 12.4, 2-(aminomethyl)-N-[(1R)-1-cyclobutylethyl]-7-[(trans-4-methylcyclohexyl)methyl]-8-[4-(propan-2-yl)pyridin-2-yl]-7H-purine-6-amine], for which the inhibition at 1 µM (read-out: % inh. at 1000 nM, at 1000 nM compound) was 39%.

`CC(Nc1nc2nc(-c3noc(=O)[nH]3)nc(N[C@H](C)C3CCC3)c2n1C[C@H]1CC[C@H](C)CC1)c1cscn1` (stereo partly drawn) [Example 11.88, 3-(6-{[(1R)-1-cyclobutylethyl]amino}-7-[(trans-4-methylcyclohexyl)methyl]-8-{[1-(1,3-thiazol-4-yl)ethyl]amino}-7H-purin-2-yl)-1,2,4-oxadiazol-5(2H)-one]: the IC50 (Table 11) was 0.00383 µM.

Take `C[C@H]1CC[C@H](Cn2c(N3CCOC[C@H]3c3ccccc3)nc3nc(-c4n[nH]c(=O)o4)nc(-c4cccc(Cl)c4)c32)CC1` [Example 16.21, 5-{6-(3-chlorophenyl)-7-[(trans-4-methylcyclohexyl)methyl]-8-[(3R)-3-phenylmorpholin-4-yl]-7H -purin-2-yl}-1,3,4-oxadiazol-2(3H)-one]: the IC50 under setting [1] stood at 0.00225 µM.

For `CC(C)c1ccnc(-c2nc3nc(CO)nc(N[C@H](C)C4CCC4)c3n2C[C@H]2CC[C@H](C)CC2)c1` [Example 12.34, (6-{[(1R)-1-cyclobutylethyl]amino}-7-[(trans-4-methylcyclohexyl)methyl]-8-[4-(1-methylethyl)pyridin-2-yl]-7H-purin-2-yl)methanol], the IC50 under setting [1] turned out to be 0.301 µM.

As to `C[C@@H](Nc1nc(-c2noc(=O)[nH]2)nc2nc(C(O)(c3ccccc3)C(F)(F)F)n(C[C@H]3CC[C@H](C)CC3)c12)C1CCC1` (single isomer, unassigned) [Example 22.25], the IC50 (Table 22) came to 0.501 µM.

`C[C@H]1CC[C@H](Cn2c(N3CCOC[C@H]3c3ccc(F)cc3)nc3nc(-c4n[nH]c(=O)o4)nc(-c4cncc(Cl)c4)c32)CC1` [Example 16.94, 5-{6-(5-chloropyridin-3-yl)-8-[(3R)-3-(4-fluorophenyl)morpholin-4-yl]-7-[(trans-4-methylcyclohexyl)methyl]-7H-purin-2-yl}-1,3,4-oxadiazol-2(3H)-one]: under setting [1], the IC50 worked out at 0.00198 µM.

On to `COC(c1cscn1)c1nc2nc(-c3noc(=O)[nH]3)nc(N[C@H](C)C3CCC3)c2n1C[C@H]1CC[C@H](C)CC1` (stereo partly drawn) [Example 22.74, 3-(6-{[(1R)-1-cyclobutylethyl]amino}-8-[methoxy(1,3-thiazol-4-yl)methyl]-7-[(trans-4-methylcyclohexyl)methyl] -7H-purin-2-yl)-1,2,4-oxadiazol-5(4H)-one], for which, where the note is “Table 22”, the IC50 was 0.00263 µM.
